According to the supplement of paper PMC11061612:

Legend:
[1] = test system: VMRC-RCZ (Kidney Carcinoma); assay: Bliss excess, mean over the matrix (fraction); higher = more synergy
Outline: (§1)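 Cell lines grown in DMEM/F12 or RPMI with 10% FBS were plated in 1536-well plates and held 24 hours at 37°C, 5% CO2 before 72 hours of exposure to two-drug dose matrices, with DMSO typically at 0.2%. CellTiter-Glo 2.0 luminescence gave viability, which was converted to inhibition. Vehicle wells were set to 0 and blank wells to 1. Combination Emax is the second-highest inhibition in the matrix, and Bliss excess is the observed combination effect minus the expected EA + EB − EA·EB, where EA and EB are the single-agent effects.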

[2] = test system: MOG-G-CCM (Low Grade Glioma); assay: as above
Outline: as §1

[3] = test system: NCI-H929 (Plasma Cell Myeloma); assay: as above
Outline: as §1

[4] = test system: NCI-H2731 (Mesothelioma); assay: as above
Outline: as §1

[5] = test system: NCCIT (Other Solid Carcinomas); assay: as above
Outline: as §1

[6] = test system: NCI-H3122 (Lung Adenocarcinoma); assay: as above
Outline: as §1

[7] = test system: COR-L279 (Small Cell Lung Carcinoma); assay: as above
Outline: as §1

[8] = test system: KP-3 (Pancreatic Carcinoma); assay: as above
Outline: as §1

[9] = test system: T-T (Esophageal Squamous Cell Carcinoma); assay: as above
Outline: as §1

[10] = test system: OCI-AML3 (Acute Myeloid Leukemia); assay: as above
Outline: as §1

[11] = test system: KU812 (Chronic Myelogenous Leukemia); assay: as above
Outline: as §1

[12] = test system: NCI-H526 (Small Cell Lung Carcinoma); assay: as above
Outline: as §1

[13] = test system: SK-GT-4 (Esophageal Adenocarcinoma); assay: as above
Outline: as §1

[14] = test system: NCI-H520 (Squamous Cell Lung Carcinoma); assay: as above
Outline: as §1

[15] = test system: MN-60 (B-Lymphoblastic Leukemia); assay: as above
Outline: as §1

[16] = test system: SJSA-1 (Osteosarcoma); assay: as above
Outline: as §1

[17] = test system: ST486 (Burkitt's Lymphoma); assay: as above
Outline: as §1

[18] = test system: M059J (Glioblastoma); assay: as above
Outline: as §1

[19] = test system: DMS-114 (Small Cell Lung Carcinoma); assay: as above
Outline: as §1

[20] = test system: CW-2 (Colorectal Carcinoma); assay: as above
Outline: as §1

[21] = test system: KYSE-270 (Esophageal Squamous Cell Carcinoma); assay: as above
Outline: as §1

[22] = test system: VMRC-RCZ (Kidney Carcinoma); assay: combination Emax (second highest fraction inhibited in the dose matrix, 72 h); higher = more inhibition; extreme values may be limits of the assay
Outline: as §1

[23] = test system: MOG-G-CCM (Low Grade Glioma); assay: as above
Outline: as §1

[24] = test system: NCI-H929 (Plasma Cell Myeloma); assay: as above
Outline: as §1

[25] = test system: NCI-H2731 (Mesothelioma); assay: as above
Outline: as §1

[26] = test system: NCCIT (Other Solid Carcinomas); assay: as above
Outline: as §1

[27] = test system: NCI-H3122 (Lung Adenocarcinoma); assay: as above
Outline: as §1

[28] = test system: COR-L279 (Small Cell Lung Carcinoma); assay: as above
Outline: as §1

[29] = test system: KP-3 (Pancreatic Carcinoma); assay: as above
Outline: as §1

[30] = test system: T-T (Esophageal Squamous Cell Carcinoma); assay: as above
Outline: as §1

[31] = test system: OCI-AML3 (Acute Myeloid Leukemia); assay: as above
Outline: as §1

[32] = test system: KU812 (Chronic Myelogenous Leukemia); assay: as above
Outline: as §1

[33] = test system: NCI-H526 (Small Cell Lung Carcinoma); assay: as above
Outline: as §1

[34] = test system: SK-GT-4 (Esophageal Adenocarcinoma); assay: as above
Outline: as §1

[35] = test system: NCI-H520 (Squamous Cell Lung Carcinoma); assay: as above
Outline: as §1

[36] = test system: MN-60 (B-Lymphoblastic Leukemia); assay: as above
Outline: as §1

[37] = test system: SJSA-1 (Osteosarcoma); assay: as above
Outline: as §1

[38] = test system: ST486 (Burkitt's Lymphoma); assay: as above
Outline: as §1

[39] = test system: M059J (Glioblastoma); assay: as above
Outline: as §1

[40] = test system: DMS-114 (Small Cell Lung Carcinoma); assay: as above
Outline: as §1

[41] = test system: CW-2 (Colorectal Carcinoma); assay: as above
Outline: as §1

[42] = test system: KYSE-270 (Esophageal Squamous Cell Carcinoma); assay: as above
Outline: as §1
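Wherever Bliss excess, mean over the matrix is given: after 72 h of two-drug dosing.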

Work on `CS(=O)(=O)CCNCc1ccc(-c2ccc3ncnc(Nc4ccc(OCc5cccc(F)c5)c(Cl)c4)c3c2)o1` [Lapatinib] + Cn1cnc2c(F)c(Nc3ccc(Br)cc3Cl)c(C(=O)NOCCO)cc21 [Selumetinib] (first compound max 10 µM, 7x7, partner max 10 µM) yielded a Bliss excess [1] of -0.0149, a Bliss excess [2] of -0.0433 and a Bliss excess [3] of 0.0271. For the same compound, the Bliss excess [4] was -0.012, the Bliss excess [5] was -0.0596 and the Bliss excess [6] was 0.0083. For the same compound, the Bliss excess [7] was -0.0224, the Bliss excess [8] was 0.0488 and the Bliss excess [9] was 0.0514. The Bliss excess [10] was -0.0562, the Bliss excess [11] was 0.0082 and the Bliss excess [12] was 0.0154. It also gave a Bliss excess [13] of 0.0369, a Bliss excess [14] of -0.034 and a Bliss excess [15] of -0.0751. The Bliss excess [16] was -0.0364, the Bliss excess [17] was 0.0111 and the Bliss excess [18] was -0.0403. It also gave a Bliss excess [19] of -0.044, a Bliss excess [20] of 0.003 and a Bliss excess [21] of -0.0187. The “combination Emax” value [22] was 0.257, the “combination Emax” value [23] was 0.257 and the “combination Emax” value [24] was 0.707. The “combination Emax” value [25] was 0.35, the “combination Emax” value [26] was 0.255 and the “combination Emax” value [27] was 0.611. The “combination Emax” value [28] was 0.811, the “combination Emax” value [29] was 0.367 and the “combination Emax” value [30] was 0.843. For the same compound, the “combination Emax” value [31] was 0.879, the “combination Emax” value [32] was 0.963 and the “combination Emax” value [33] was 0.164. For the same compound, the “combination Emax” value [34] was 0.585, the “combination Emax” value [35] was 0.357 and the “combination Emax” value [36] was 0.204. For the same compound, the “combination Emax” value [37] was 0.422, the “combination Emax” value [38] was 0.825 and the “combination Emax” value [39] was 0.365. For the same compound, the “combination Emax” value [40] was 0.437, the “combination Emax” value [41] was 0.576 and the “combination Emax” value [42] was 0.542.
`Cc1cc2ncnn2cc1Nc1ncc2c(n1)n(C1CCOCC1)c(=O)n2C` [AZD7648] + COc1cc([C@@H]2c3cc4c(cc3[C@@H](O[C@@H]3O[C@@H]5CO[C@@H](C)O[C@H]5[C@H](O)[C@H]3O)[C@H]3COC(=O)[C@H]23)OCO4)cc(OC)c1O [Etoposide] (first compound max 10 µM, 7x7, partner max 10 µM) showed a Bliss excess [1] of 0.0743, a Bliss excess [2] of 0.106 and a Bliss excess [3] of 0.033. The Bliss excess [4] was 0.08, the Bliss excess [5] was 0.0365 and the Bliss excess [6] was 0.0903. For the same compound, the Bliss excess [7] was 0.149, the Bliss excess [8] was -0.0136 and the Bliss excess [9] was 0.0254. For the same compound, the Bliss excess [10] was 0.123, the Bliss excess [11] was 0.035 and the Bliss excess [12] was 0.121. It also gave a Bliss excess [13] of 0.0096, a Bliss excess [14] of 0.0639 and a Bliss excess [15] of 0.06. For the same compound, the Bliss excess [16] was 0.0316, the Bliss excess [17] was 0.0989 and the Bliss excess [18] was 0.003. For the same compound, the Bliss excess [19] was 0.0198, the Bliss excess [20] was 0.0573 and the Bliss excess [21] was 0.0627. The “combination Emax” value [22] was 0.399, the “combination Emax” value [23] was 0.577 and the “combination Emax” value [24] was 0.988. The “combination Emax” value [25] was 0.542, the “combination Emax” value [26] was 0.495 and the “combination Emax” value [27] was 0.67. The “combination Emax” value [28] was 1, the “combination Emax” value [29] was 0.312 and the “combination Emax” value [30] was 0.362. For the same compound, the “combination Emax” value [31] was 0.943, the “combination Emax” value [32] was 0.792 and the “combination Emax” value [33] was 0.999. The “combination Emax” value [34] was 0.387, the “combination Emax” value [35] was 0.698 and the “combination Emax” value [36] was 0.829. The “combination Emax” value [37] was 0.503, the “combination Emax” value [38] was 0.933 and the “combination Emax” value [39] was 0.775. The “combination Emax” value [40] was 0.658, the “combination Emax” value [41] was 0.379 and the “combination Emax” value [42] was 0.871.
